Literature values as cited in patent publication US20130053433A1, “FATTY ACID DERIVATIVES AND ANALOGS OF DRUGS” (The University of North Carolina at Chapel Hill, priority 2010, published 2013).
pKd: −log10 of the molar value.

Target: albumin (Homo sapiens, UniProt P02768)
Sequence (P02768 25-609): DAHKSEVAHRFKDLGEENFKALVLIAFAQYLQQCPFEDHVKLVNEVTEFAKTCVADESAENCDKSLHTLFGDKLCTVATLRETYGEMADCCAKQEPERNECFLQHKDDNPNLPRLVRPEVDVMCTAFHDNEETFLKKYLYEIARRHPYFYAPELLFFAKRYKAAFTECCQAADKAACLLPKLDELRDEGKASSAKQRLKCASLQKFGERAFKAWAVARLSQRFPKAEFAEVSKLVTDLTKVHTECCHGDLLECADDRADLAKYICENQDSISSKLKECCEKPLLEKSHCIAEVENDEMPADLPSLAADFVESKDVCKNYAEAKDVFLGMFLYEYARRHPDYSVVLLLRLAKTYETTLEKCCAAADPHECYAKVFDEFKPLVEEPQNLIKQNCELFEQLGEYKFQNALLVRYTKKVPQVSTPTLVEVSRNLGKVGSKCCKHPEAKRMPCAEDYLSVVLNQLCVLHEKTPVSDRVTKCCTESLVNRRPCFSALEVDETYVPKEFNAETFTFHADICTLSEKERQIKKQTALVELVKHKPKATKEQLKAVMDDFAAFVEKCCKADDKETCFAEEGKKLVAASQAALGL

SMILES	pKd (read-out: dissociation constant Kd for albumin, Paal, Muller et al. 2001)	Kd for albumin (depending on total fatty acid concentration, Curry, Brick et al. 1999)
CC(=O)O[C@H]1C(=O)[C@@]2(C)[C@H]([C@H](OC(=O)c3ccccc3)[C@]3(O)C[C@H](OC(=O)[C@H](O)[C@@H](NC(=O)c4ccccc4)c4ccccc4)C(C)=C1C3(C)C)[C@]1(OC(C)=O)CO[C@@H]1C[C@@H]2O [PTX, paclitaxel]	~5.00	
CCCCCCCCCCCCCCCCCC(=O)O [stearic acid]		in the range of μM to nM
